# In patent US8232248B2, “Treatment of rheumatoid arthritis with mammal beta defensins” (Novozymes Adenium Biotech A/S, priority 2008, dated 2012):
# Where no end group is shown, it is not given here.
# How the values were obtained:
# [1] = test system: TNF production from human peripheral blood mononuclear cells (PBMC); test: TNF production from PBMC stimulated with LPS, LTA, PGN or Pam3CSK4, 24 h, Cytometric Bead Array; type: cell-based; details: for TNF % of control / TNF: Table 18
# Protocol: (§1) Peripheral blood was drawn from healthy volunteers (with approval from the relevant ethical committee in Denmark). Heparinized blood was diluted 1/1 v/v with RPMI and were subjected to Ficoll density centrifugation within 2 h of drawing. Plasma was collected from the top from individual donors and was kept on ice until it was used at 2% in the culture medium (autologous culture medium). Isolated PBMC were resuspended in autologous culture medium and seeded in 96-well culture plates with 255.000 cells per well in a total of 200 μl. […] The concentrations used for stimulation were optimized on 3 different donors in initial experiments, for LPS two different concentrations were used to be sure to be on a cytokine level that is possible to modulate. In some experiments PBMC were treated with Dexamethason and Indomethacin alone and together with LPS or LTA as a control on downregulation of inflammatory cytokines. The supernatants were collected after incubation at 37° C. for 24 hours, and stored at −80° C. until cytokine measurement. Viability was measured by Alamar Blue (Biosource, DALL 1100) in all experiments and in some cases also by MTS (Promega) according to manufacturer's instruction and was in some experiments also judged by counting of the cells by a Nucleocounter.
# (§2) Cytokine production in supernatants was measured by flow cytometry with a human inflammation cytometric bead array (CBA) according to manufacturer's instructions (BD) on a FACSarray flow cytometer. The following cytokines were measured: IL-8, IL-1β, IL-10, TNF, IL-12 p70, IL-6. In some experiments, cytokines were measured by ELISA kits from R&D systems (IL-10, TNF-α, IL-1β) according to the manufacturer' instruction.
# (§3) All experiments were performed at least twice, with representative results shown. The data presented are expressed as mean plus/minus standard deviation (SD). […] Differences were considered significant for p<0.05.
# Example 3 was carried out essentially as described in Example 2. […]
# [2] = test system: TNF production from mouse peripheral blood mononuclear cells (PBMC); test: TNF production from mouse PBMC, mouse inflammation CBA; type: cell-based
# Protocol: Mouse peripheral blood mononuclear cells were isolated from blood of ten NMRI mice. In short, heparinized blood was diluted 1/1 v/v with RPMI and subjected to Ficoll density centrifugation within 2 h of drawing. Plasma was collected from the top and discarded. Isolated PBMC were resuspended in culture medium (RPMI 1640 (Gibco, 42401) w/1% penicillin and streptomycin and 1% L-Glutamine) and seeded in 96-well culture plates with 115.500 cells per well in a total of 200 μl. […] The supernatants were collected after incubation at 37° C. for 24 hours, and stored at −80° C. until cytokine measurement.
# Cytokine production in supernatants was measured by flow cytometry with a mouse inflammation cytometric bead array (CBA) according to manufacturer's instructions (BD) on a FACSarray flow cytometer.
# [3] = test system: IL-1β production from human peripheral blood mononuclear cells (PBMC); test: IL-1β production from PBMC stimulated with LPS or LTA, 24 h, Cytometric Bead Array; type: cell-based; details: Table 20
# Protocol: as §1, §2, §3
# IL-23, human PBMC = test: IL-23 in supernatants of human PBMC, ELISA; type: cell-based; details: Infliximab 1 μg/ml
# Protocol: as §1
# Moreover, the effect of rhBD2 on human monocyte-derived dendritic cells was also investigated.
# Cell culture supernatants were collected and stored at −80° C. Amounts of IL-23 was measured by standard sandwich ELISA using commercially available antibodies and standards according to the manufacturer's protocols (eBioscience).
# All experiments were performed at least twice, with representative results shown. The data presented are expressed as mean plus/minus standard deviation […]. […] Differences were considered significant for p<0.05.
# [4] = test system: IL-10 production from human peripheral blood mononuclear cells (PBMC); test: IL-10 production from PBMC stimulated with LPS, LTA or PGN, 24 h, Cytometric Bead Array; type: cell-based; details: Table 19
# Protocol: as §1, §2, §3
# PBMC = PBMC viability, Alamar Blue; type: cell-based, human; details: 10 μg/ml and 40 μg/ml
# Protocol: as §1
# [5] = positive control, concentration not given, LPS 0.6 ng/ml
# [6] = positive control, concentration not given, LPS 20 ng/ml
# [7] = positive control, concentration not given, Medium, non-treated 0
# [8] = test compound 1 μg/ml, LPS 0.6 ng/ml
# [9] = test compound 1 μg/ml, LPS 0.6 ng/ml, non-treated 741
# [10] = test compound 1 μg/ml, LPS 20 ng/ml
# [11] = test compound 1 μg/ml, LPS 20 ng/ml, non-treated 2544
# [12] = test compound 1 μg/ml, Medium, non-treated 0
# [13] = test compound 10 μg/ml, LPS 0.6 ng/ml
# [14] = test compound 10 μg/ml, LPS 20 ng/ml
# [15] = test compound 10 μg/ml, Medium, non-treated 0
# [16] = test compound 40 μg/ml, LPS 0.6 ng/ml
# [17] = test compound 40 μg/ml, LPS 20 ng/ml
# [18] = test compound 40 μg/ml, Medium, non-treated 0
# [19] = test compound 1 μg/ml, LPS 0.6 ng/ml, non-treated 728
# [20] = test compound 1 μg/ml, LPS 20 ng/ml, non-treated 2164
# [21] = test compound 1 μg/ml, Medium, non-treated 1
# [22] = test compound 1 μg/ml, LPS 0.6 ng/ml, non-treated 66
compound,measurement,setting,value
"COc1ccc2c(c1)c(CC(=O)O)c(C)n2C(=O)c1ccc(Cl)cc1 [Indomethacin, reference compound]",TNF inhibition (positive controls),"[1]; PBMC stimulated with LPS or LTA, Table 13",only inhibited TNF (Table 13) after stimulation with LTA
Infliximab: anti-inflammatory compound included as positive control on downregulation of TNF [reference compound],TNF,"[2]; Infliximab 1 μg/ml, LPS 20 ng/ml, untreated 2063",2119 pg/mL
same,TNF,"[2]; Infliximab 1 μg/ml, Medium, untreated 578",530 pg/mL
same,IL-1β % of control,[3]; [5],86%
same,IL-1β,"[3]; positive control, concentration not given, LPS 0.6 ng/ml, non-treated 741",636 pg/mL
same,IL-1β % of control,[3]; [6],106%
same,IL-1β,"[3]; positive control, concentration not given, LPS 20 ng/ml, non-treated 2544",2704 pg/mL
same,IL-1β,[3]; [7],0 pg/mL
same,TNF % of control,[1]; [5],0%
same,TNF,"[1]; positive control, concentration not given, LPS 0.6 ng/ml, non-treated 728",0 pg/mL
same,TNF % of control,[1]; [6],0%
same,TNF,"[1]; positive control, concentration not given, LPS 20 ng/ml, non-treated 2164",0 pg/mL
same,TNF,"[1]; positive control, concentration not given, Medium, non-treated 1",0 pg/mL
same,IL-23,"IL-23, human PBMC; Control (medium), non-treated 257",227 pg/mL
same,IL-23,"IL-23, human PBMC; LPS 0.6 ng/ml, non-treated 553",356 pg/mL
same,IL-23,"IL-23, human PBMC; LPS 20 ng/ml, non-treated 510",373 pg/mL
same,IL-23,"IL-23, human PBMC; LTA 5 μg/ml, non-treated 762",349 pg/mL
same,IL-10 % of control,[4]; [5],69%
same,IL-10,"[4]; positive control, concentration not given, LPS 0.6 ng/ml, non-treated 66",46 pg/mL
same,IL-10 % of control,[4]; [6],56%
same,IL-10,"[4]; positive control, concentration not given, LPS 20 ng/ml, non-treated 111",63 pg/mL
same,IL-10,[4]; [7],0 pg/mL
"hBD1: human beta defensin 1, SEQ ID NO:1, obtained from Peptide Institute Inc. (DHYNCVSSGGQCLYSACPIFTKIQGTCYRGKAKCCK; ends and bridges not checked; cysteine pairing not given here; listed as Homo sapiens)",IL-1β % of control,[3]; [8],69%
same,IL-1β,[3]; [9],512 pg/mL
same,IL-1β % of control,[3]; [10],82%
same,IL-1β,[3]; [11],2087 pg/mL
same,IL-1β,[3]; [12],0 pg/mL
same,IL-1β % of control,[3]; [13],54%
same,IL-1β,"[3]; test compound 10 μg/ml, LPS 0.6 ng/ml, non-treated 741",401 pg/mL
same,IL-1β % of control,[3]; [14],75%
same,IL-1β,"[3]; test compound 10 μg/ml, LPS 20 ng/ml, non-treated 2544",1913 pg/mL
same,IL-1β,[3]; [15],0 pg/mL
same,IL-1β % of control,[3]; [16],41%
same,IL-1β,"[3]; test compound 40 μg/ml, LPS 0.6 ng/ml, non-treated 741",302 pg/mL
same,IL-1β % of control,[3]; [17],63%
same,IL-1β,"[3]; test compound 40 μg/ml, LPS 20 ng/ml, non-treated 2544",1599 pg/mL
same,IL-1β,[3]; [18],0 pg/mL
same,TNF % of control,[1]; [8],65%
same,TNF,[1]; [19],474 pg/mL
same,TNF % of control,[1]; [10],64%
same,TNF,[1]; [20],1395 pg/mL
same,TNF,[1]; [21],1 pg/mL
same,TNF % of control,[1]; [13],28%
same,TNF,"[1]; test compound 10 μg/ml, LPS 0.6 ng/ml, non-treated 728",203 pg/mL
same,TNF % of control,[1]; [14],61%
same,TNF,"[1]; test compound 10 μg/ml, LPS 20 ng/ml, non-treated 2164",1311 pg/mL
same,TNF,"[1]; test compound 10 μg/ml, Medium, non-treated 1",0 pg/mL
same,TNF % of control,[1]; [16],13%
same,TNF,"[1]; test compound 40 μg/ml, LPS 0.6 ng/ml, non-treated 728",91 pg/mL
same,TNF % of control,[1]; [17],46%
same,TNF,"[1]; test compound 40 μg/ml, LPS 20 ng/ml, non-treated 2164",999 pg/mL
same,TNF,"[1]; test compound 40 μg/ml, Medium, non-treated 1",0 pg/mL
same,IL-10 % of control,[4]; [8],108%
same,IL-10,[4]; [22],71 pg/mL
same,IL-10 % of control,[4]; [10],85%
same,IL-10,"[4]; test compound 1 μg/ml, LPS 20 ng/ml, non-treated 111",95 pg/mL
same,IL-10,[4]; [12],0 pg/mL
same,IL-10 % of control,[4]; [13],114%
same,IL-10,"[4]; test compound 10 μg/ml, LPS 0.6 ng/ml, non-treated 66",76 pg/mL
same,IL-10 % of control,[4]; [14],90%
same,IL-10,"[4]; test compound 10 μg/ml, LPS 20 ng/ml, non-treated 111",100 pg/mL
same,IL-10,[4]; [15],0 pg/mL
same,IL-10 % of control,[4]; [16],104%
same,IL-10,"[4]; test compound 40 μg/ml, LPS 0.6 ng/ml, non-treated 66",69 pg/mL
same,IL-10 % of control,[4]; [17],102%
same,IL-10,"[4]; test compound 40 μg/ml, LPS 20 ng/ml, non-treated 111",113 pg/mL
same,IL-10,[4]; [18],0 pg/mL
"hBD3: human beta defensin 3, SEQ ID NO:3, obtained from Peptide Institute Inc.",Toxicity to the cells,PBMC,toxic to the cells
same,IL-1β % of control,[3]; [8],45%
same,IL-1β,[3]; [9],331 pg/mL
same,IL-1β % of control,[3]; [10],22%
same,IL-1β,[3]; [11],568 pg/mL
same,IL-1β,[3]; [12],0 pg/mL
same,TNF % of control,[1]; [8],73%
same,TNF,[1]; [19],528 pg/mL
same,TNF % of control,[1]; [10],21%
same,TNF,[1]; [20],451 pg/mL
same,TNF,[1]; [21],0 pg/mL
same,IL-10 % of control,[4]; [8],107%
same,IL-10,[4]; [22],71 pg/mL
same,IL-10 % of control,[4]; [10],137%
same,IL-10,[4]; [12],0 pg/mL
"mBD3: mouse beta defensin 3, SEQ ID NO:6, prepared with the same protocol as hBD2 (KINNPVSCLRKGGRCWNRCIGNTRQIGSCGVPFLKCCKRK; ends and bridges not checked; cysteine pairing not given here; listed as Mus musculus)",TNF,"[2]; mBD3 1 μg/ml, LPS 20 ng/ml, untreated 2063",1600 pg/mL
same,TNF,"[2]; mBD3 1 μg/ml, Medium, untreated 578",347 pg/mL
same,TNF,"[2]; mBD3 10 μg/ml, LPS 20 ng/ml, untreated 2063",297 pg/mL
same,TNF,"[2]; mBD3 10 μg/ml, Medium, untreated 578",180 pg/mL
same,TNF,"[2]; mBD3 100 μg/ml, LPS 20 ng/ml, untreated 2063",195 pg/mL
same,TNF,"[2]; mBD3 100 μg/ml, Medium, untreated 578",182 pg/mL
same,Secretion of TNF from human PBMCs,[1]; Table 23,downregulating the secretion of TNF from human PBMCs to the same extend as hBD2 and dexamethason
